Experimental data taken from US9617256B2 (priority 2007, dated 2017).
Values after ≈ are worked out from the molar mass of the structure shown.

Experiments:
[1] = system: APAE006 (strain of P. aeruginosa in which all efflux pumps are inactivated); test: microbe, parasite or virus in culture; type: cell-based; conditions: for MIC: Pseudomonas aeruginosa, read-out: MIC APAE006, P. aeruginosa, all efflux pumps inactivated; for MIC APAE006: P. aeruginosa, all efflux pumps inactivated
How it was run: (§1)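 CLSI broth microdilution in cation-adjusted Mueller-Hinton broth, final inoculum 3×10^5–7×10^5 CFU/mL, 2-fold drug dilutions, 18-24 hours at 35° C. in ambient air. APAE006 is an efflux-pump-inactivated P. aeruginosa strain. Assay performance monitored with QC strains and levofloxacin.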

[2] = system: ASAU001 (laboratory strain of S. aureus, ATCC29213); test: MIC broth microdilution, ASAU001; type: cell-based; conditions: for MIC: Staphylococcus aureus, ATCC29213, read-out: MIC ASAU001; for MIC ASAU001: S. aureus ATCC29213
How it was run: (§2)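 MICs come from broth microdilution in cation-adjusted Mueller-Hinton broth, final inoculum 3×10^5–7×10^5 CFU/mL, 18-24 hours at 35° C. Levofloxacin and QC strains served as assay controls.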

[3] = system: AECO001 HSA AGP; test: MIC broth microdilution, AECO001 HSA AGP; type: cell-based, E. coli; conditions: for MIC: Escherichia coli
How it was run: as §2

[4] = system: AECO063 (ATCC25922 bearing an acrAB mutation); test: microbe, parasite or virus in culture; type: cell-based, E. coli; conditions: for MIC: Escherichia coli, ATCC25922, read-out: MIC AECO063; for MIC AECO063: ATCC25922 bearing an acrAB mutation
How it was run: as §2

[5] = system: APAE001 (ATCC27853); test: MIC broth microdilution, APAE001; type: cell-based, P. aeruginosa; conditions: for MIC: Pseudomonas aeruginosa, ATCC27853, read-out: MIC APAE001, APAE001 is ATCC27853; for MIC APAE001: APAE001 is ATCC27853
How it was run: as §2

[6] = system: AABA1060 (clinical isolate of Acinetobacter baumannii); test: MIC broth microdilution, AABA1060; type: cell-based; conditions: for MIC: Acinetobacter baumannii, read-out: MIC AABA1060; for MIC AABA1060: clinical isolate of Acinetobacter baumannii
How it was run: as §2

[7] = system: AECO001 (ATCC25922); test: MIC broth microdilution, AECO001; type: cell-based, E. coli; conditions: for MIC: Escherichia coli, ATCC25922, read-out: MIC AECO001; for MIC AECO001: AECO001 is ATCC25922
How it was run: as §2

[8] = system: APAE006 in the presence of 8 micrograms per milliliter of polymyxin B nonapeptide; type: cell-based, P. aeruginosa; conditions: in the presence of 8 micrograms per milliliter of polymyxin B nonapeptide
How it was run: as §1

Compound	MIC [1]	MIC [2]	MIC [3]	MIC [4]	MIC [5]	MIC [6]	MIC [7]	MIC APAE006 + PMBN [8]	MIC APAE006 [1]	MIC ASAU001 [2]	MIC AECO001 HSA AGP [3]	MIC AECO063 [4]	MIC APAE001 [5]	MIC AABA1060 [6]	MIC AECO001 [7]
C[C@@H](N)[C@H](NC(=O)c1ccc(C#CC#Cc2ccc(OC(F)(F)F)cc2)cc1)C(=O)NO [Example 82-11]	2 to 16 µg/mL (≈ 4.49 to 35.9 µM)	16 to 64 µg/mL (≈ 35.9 to 144 µM)	2 to 16 µg/mL (≈ 4.49 to 35.9 µM)	< 2 µg/mL	16 to 64 µg/mL (≈ 35.9 to 144 µM)	16 to 64 µg/mL (≈ 35.9 to 144 µM)	2 to 16 µg/mL (≈ 4.49 to 35.9 µM)	A (MIC's of 2.0 μg/mL or less = A)							
C[C@@H](N)[C@H](NC(=O)c1ccc(/C=C/C#Cc2ccccc2Cl)cc1)C(=O)NO [Example 114-5]	< 2 µg/mL	2 to 16 µg/mL (≈ 5.03 to 40.2 µM)	2 to 16 µg/mL (≈ 5.03 to 40.2 µM)	< 2 µg/mL	2 to 16 µg/mL (≈ 5.03 to 40.2 µM)	< 2 µg/mL	< 2 µg/mL	A (MIC's of 2.0 μg/mL or less = A)							
C[C@@H](N)[C@H](NC(=O)c1ccc(C#CC#Cc2ccccc2F)cc1)C(=O)NO [Example 82-7]	< 2 µg/mL	2 to 16 µg/mL (≈ 5.27 to 42.2 µM)	2 to 16 µg/mL (≈ 5.27 to 42.2 µM)	< 2 µg/mL	< 2 µg/mL	< 2 µg/mL	< 2 µg/mL	A (MIC's of 2.0 μg/mL or less = A)							
C[C@@H](N)[C@H](NC(=O)c1ccc(C#Cc2ccc(CN3CCCOCC3)cc2)cc1)C(=O)NO [Example 118-7]	< 2 µg/mL	16 to 64 µg/mL (≈ 35.5 to 142 µM)	2 to 16 µg/mL (≈ 4.44 to 35.5 µM)	< 2 µg/mL	< 2 µg/mL	2 to 16 µg/mL (≈ 4.44 to 35.5 µM)	< 2 µg/mL	A (MIC's of 2.0 μg/mL or less = A)							
C[C@@H](NC(=O)CNC1CC1)[C@H](NC(=O)c1ccc(C#C/C=C/c2ccccc2)cc1)C(=O)NO [Example 105-3]								A (MIC's of 2.0 μg/mL or less = A)	B (MIC's of greater than 2.0 μg/mL to 16.0 μg/mL = B)	C (MIC's of greater than 16.0 μg/mL to 64.0 μg/mL = C)	C (MIC's of greater than 16.0 μg/mL to 64.0 μg/mL = C)	B (MIC's of greater than 2.0 μg/mL to 16.0 μg/mL = B)	C (MIC's of greater than 16.0 μg/mL to 64.0 μg/mL = C)	C (MIC's of greater than 16.0 μg/mL to 64.0 μg/mL = C)	C (MIC's of greater than 16.0 μg/mL to 64.0 μg/mL = C)
C[C@@H](NC(=O)CNC1CC1)[C@H](NC(=O)c1ccc(C#Cc2ccc(CN3CCOCC3)cc2)cc1)C(=O)NO [Example 137-2]	< 2 µg/mL	> 64 µg/mL	2 to 16 µg/mL (≈ 3.75 to 30 µM)	< 2 µg/mL	2 to 16 µg/mL (≈ 3.75 to 30 µM)	16 to 64 µg/mL (≈ 30 to 120 µM)	< 2 µg/mL	A (MIC's of 2.0 μg/mL or less = A)							
C[C@@H](N)[C@H](NC(=O)c1ccc(C#CC#Cc2ccc(CN3CCOCC3)cc2)cc1)C(=O)NO [Example 86-2]	< 2 µg/mL	16 to 64 µg/mL (≈ 34.7 to 139 µM)	< 2 µg/mL	< 2 µg/mL	2 to 16 µg/mL (≈ 4.34 to 34.7 µM)	2 to 16 µg/mL (≈ 4.34 to 34.7 µM)	< 2 µg/mL	A (MIC's of 2.0 μg/mL or less = A)							
C[C@@H](N)[C@H](NC(=O)c1ccc(/C=C/C#Cc2ccc(CN3CCS(=O)(=O)CC3)cc2)cc1)C(=O)NO [Example 113-8]								A (MIC's of 2.0 μg/mL or less = A)	A (MIC's of 2.0 μg/mL or less = A)	C (MIC's of greater than 16.0 μg/mL to 64.0 μg/mL = C)	B (MIC's of greater than 2.0 μg/mL to 16.0 μg/mL = B)	A (MIC's of 2.0 μg/mL or less = A)	B (MIC's of greater than 2.0 μg/mL to 16.0 μg/mL = B)	A (MIC's of 2.0 μg/mL or less = A)	A (MIC's of 2.0 μg/mL or less = A)
C[C@@H](O)[C@H](NC(=O)c1ccc(CCc2ccc(CN3CCOCC3)cc2)cc1)C(=O)NO [Example 137-8]	< 2 µg/mL	16 to 64 µg/mL (≈ 36.2 to 145 µM)	16 to 64 µg/mL (≈ 36.2 to 145 µM)	< 2 µg/mL	2 to 16 µg/mL (≈ 4.53 to 36.2 µM)	16 to 64 µg/mL (≈ 36.2 to 145 µM)	2 to 16 µg/mL (≈ 4.53 to 36.2 µM)	A (MIC's of 2.0 μg/mL or less = A)							
C[C@@H](N)[C@H](NC(=O)c1ccc(C#Cc2ccc(CNC(=N)N)cc2)cc1)C(=O)NO [Example 131-3, N-((1S,2R)-2-Amino-1-hydroxycarbamoyl-propyl)-4-(4-guanidinomethyl-phenylethynyl)-benzamide]	< 2 µg/mL	16 to 64 µg/mL (≈ 39.2 to 157 µM)	16 to 64 µg/mL (≈ 39.2 to 157 µM)	16 to 64 µg/mL (≈ 39.2 to 157 µM)	2 to 16 µg/mL (≈ 4.9 to 39.2 µM)	16 to 64 µg/mL (≈ 39.2 to 157 µM)	16 to 64 µg/mL (≈ 39.2 to 157 µM)	A (MIC's of 2.0 μg/mL or less = A)							
